Experimental data: ChEMBL document CHEMBL3872249, “Computer design, synthesis, and bioactivity analyses of drugs like fingolimod used in the treatment of multiple sclerosis” (Bioorg Med Chem, 2017)

Key:
Type in all cases: functional
[1] = tested on: SK-N-SH; experiment: Effect on STAT3 mRNA expression in human SK-N-SH cells at EC10 by qPCR method relative to beta-actin
[2] = tested on: U-118-MG; experiment: Effect on CYP19A1 mRNA expression in human U118MG cells at EC10 by qPCR method relative to beta-actin
[3] = tested on: SK-N-SH; experiment: Effect on ICAM1 mRNA expression in human SK-N-SH cells at EC10 by qPCR method relative to beta-actin
[4] = tested on: SH-SY5Y; experiment: Effect on JUN mRNA expression in human SH-SY5Y cells at EC10 by qPCR method relative to beta-actin
[5] = tested on: SK-N-SH; experiment: Effect on GRM1 mRNA expression in human SK-N-SH cells at EC10 by qPCR method relative to beta-actin
[6] = tested on: SH-SY5Y; experiment: Effect on TSHR mRNA expression in human SH-SY5Y cells at EC10 by qPCR method relative to beta-actin
[7] = tested on: SK-N-SH; experiment: Effect on COL1A1 mRNA expression in human SK-N-SH cells at EC10 by qPCR method relative to beta-actin
[8] = tested on: SK-N-SH; experiment: Effect on IL1B mRNA expression in human SK-N-SH cells at EC10 by qPCR method relative to beta-actin
[9] = tested on: U-118-MG; experiment: Effect on IFNG mRNA expression in human U118MG cells at EC10 by qPCR method relative to beta-actin
[10] = tested on: SH-SY5Y; experiment: Effect on CCL3 mRNA expression in human SH-SY5Y cells at EC10 by qPCR method relative to beta-actin
[11] = tested on: U-118-MG; experiment: Effect on AKT1 mRNA expression in human U118MG cells at EC10 by qPCR method relative to beta-actin
[12] = tested on: SH-SY5Y; experiment: Effect on FGF2 mRNA expression in human SH-SY5Y cells at EC10 by qPCR method relative to beta-actin
[13] = tested on: SK-N-SH; experiment: Effect on CCL3 mRNA expression in human SK-N-SH cells at EC10 by qPCR method relative to beta-actin
[14] = tested on: SH-SY5Y; experiment: Effect on COL1A1 mRNA expression in human SH-SY5Y cells at EC10 by qPCR method relative to beta-actin
[15] = tested on: SK-N-SH; experiment: Effect on PIK3CG mRNA expression in human SK-N-SH cells at EC10 by qPCR method relative to beta-actin
[16] = tested on: SK-N-SH; experiment: Effect on NOS2 mRNA expression in human SK-N-SH cells at EC10 by qPCR method relative to beta-actin
[17] = tested on: SK-N-SH; experiment: Effect on AGTR2 mRNA expression in human SK-N-SH cells at EC10 by qPCR method relative to beta-actin
[18] = tested on: U-118-MG; experiment: Effect on COL1A1 mRNA expression in human U118MG cells at EC10 by qPCR method relative to beta-actin
[19] = tested on: SH-SY5Y; experiment: Effect on AGTR2 mRNA expression in human SH-SY5Y cells at EC10 by qPCR method relative to beta-actin
[20] = tested on: U-118-MG; experiment: Effect on TSHR mRNA expression in human U118MG cells at EC10 by qPCR method relative to beta-actin
[21] = tested on: SH-SY5Y; experiment: Effect on EPHA1 mRNA expression in human SH-SY5Y cells at EC10 by qPCR method relative to beta-actin
[22] = tested on: U-118-MG; experiment: Effect on PTGDR mRNA expression in human U118MG cells at EC10 by qPCR method relative to beta-actin
[23] = tested on: SH-SY5Y; experiment: Effect on STAT3 mRNA expression in human SH-SY5Y cells at EC10 by qPCR method relative to beta-actin
[24] = tested on: SK-N-SH; experiment: Effect on ADRB2 mRNA expression in human SK-N-SH cells at EC10 by qPCR method relative to beta-actin
[25] = tested on: U-118-MG; experiment: Effect on CCL2 mRNA expression in human U118MG cells at EC10 by qPCR method relative to beta-actin
[26] = tested on: SH-SY5Y; experiment: Effect on GRM1 mRNA expression in human SH-SY5Y cells at EC10 by qPCR method relative to beta-actin
[27] = tested on: SK-N-SH; experiment: Effect on FOXP3 mRNA expression in human SK-N-SH cells at EC10 by qPCR method relative to beta-actin
[28] = tested on: SH-SY5Y; experiment: Effect on HDAC1 mRNA expression in human SH-SY5Y cells at EC10 by qPCR method relative to beta-actin
[29] = tested on: U-118-MG; experiment: Effect on EPHA1 mRNA expression in human U118MG cells at EC10 by qPCR method relative to beta-actin
[30] = tested on: SH-SY5Y; experiment: Effect on IFNG mRNA expression in human SH-SY5Y cells at EC10 by qPCR method relative to beta-actin
[31] = tested on: U-118-MG; experiment: Effect on MYC mRNA expression in human U118MG cells at EC10 by qPCR method relative to beta-actin
[32] = tested on: U-118-MG; experiment: Effect on CCL3 mRNA expression in human U118MG cells at EC10 by qPCR method relative to beta-actin
[33] = tested on: SK-N-SH; experiment: Effect on BCL2 mRNA expression in human SK-N-SH cells at EC10 by qPCR method relative to beta-actin
[34] = tested on: U-118-MG; experiment: Effect on EDNRA mRNA expression in human U118MG cells at EC10 by qPCR method relative to beta-actin
[35] = tested on: SK-N-SH; experiment: Effect on OPRD1 mRNA expression in human SK-N-SH cells at EC10 by qPCR method relative to beta-actin
[36] = tested on: SH-SY5Y; experiment: Effect on ITGB2 mRNA expression in human SH-SY5Y cells at EC10 by qPCR method relative to beta-actin
[37] = tested on: U-118-MG; experiment: Effect on CXCL10 mRNA expression in human U118MG cells at EC10 by qPCR method relative to beta-actin
[38] = tested on: SH-SY5Y; experiment: Effect on VEGFA mRNA expression in human SH-SY5Y cells at EC10 by qPCR method relative to beta-actin
[39] = tested on: SH-SY5Y; experiment: Effect on CXCL11 mRNA expression in human SH-SY5Y cells at EC10 by qPCR method relative to beta-actin
[40] = tested on: SH-SY5Y; experiment: Effect on LTA mRNA expression in human SH-SY5Y cells at EC10 by qPCR method relative to beta-actin
[41] = tested on: SK-N-SH; experiment: Effect on S1PR3 mRNA expression in human SK-N-SH cells at EC10 by qPCR method relative to beta-actin
[42] = tested on: U-118-MG; experiment: Effect on EDN1 mRNA expression in human U118MG cells at EC10 by qPCR method relative to beta-actin
[43] = tested on: SH-SY5Y; experiment: Effect on IL2 mRNA expression in human SH-SY5Y cells at EC10 by qPCR method relative to beta-actin
[44] = tested on: SH-SY5Y; experiment: Effect on HLA-DRB1 mRNA expression in human SH-SY5Y cells at EC10 by qPCR method relative to beta-actin

SMILES: CCCCCCCCc1ccc(CCC(N)(CO)CO)cc1 [FINGOLIMOD]
- fold change (FC) [1]: -8.0243
- fold change (FC) [2]: -4.301
- fold change (FC) [3]: -4.0965
- fold change (FC) [4]: -3.5677
- fold change (FC) [5]: -4.8631
- fold change (FC) [6]: -4.0629
- fold change (FC) [7]: -3.7305
- fold change (FC) [8]: -5.3866
- fold change (FC) [9]: -5.5428
- fold change (FC) [10]: -4.8232
- fold change (FC) [11]: -2.5763
- fold change (FC) [12]: -8.2392
- fold change (FC) [13]: -4.0682
- fold change (FC) [14]: -5.0806
- fold change (FC) [15]: -5.7333
- fold change (FC) [16]: -5.9976
- fold change (FC) [17]: 3.8122
- fold change (FC) [18]: -5.339
- fold change (FC) [19]: 3.2887
- fold change (FC) [20]: -3.664
- fold change (FC) [21]: -6.442
- fold change (FC) [22]: -4.4856
- fold change (FC) [23]: -5.5022
- fold change (FC) [24]: -6.7945
- fold change (FC) [25]: -5.2826
- fold change (FC) [26]: -20.6061
- fold change (FC) [27]: -4.444
- fold change (FC) [28]: -15.9446
- fold change (FC) [29]: -3.7679
- fold change (FC) [30]: -5.1964
- fold change (FC) [31]: -4.9203
- fold change (FC) [32]: -3.4017
- fold change (FC) [33]: -2.7547
- fold change (FC) [34]: 3.242
- fold change (FC) [35]: 4.9782
- fold change (FC) [36]: -3.9655
- fold change (FC) [37]: -8.4782
- fold change (FC) [38]: -4.3696

SMILES: CCCCCCCCn1nnnc1CCC(N)(CO)CO.Cl
- fold change (FC) [1]: -5.0696
- fold change (FC) [2]: -3.3614
- fold change (FC) [3]: -9.5591
- fold change (FC) [4]: -4.7214
- fold change (FC) [5]: -5.0346
- fold change (FC) [6]: 4.7801
- fold change (FC) [7]: -3.842
- fold change (FC) [39]: -5.0428
- fold change (FC) [8]: -4.7796
- fold change (FC) [9]: -4.5394
- fold change (FC) [11]: -2.6892
- fold change (FC) [12]: -3.8516
- fold change (FC) [40]: -2.54
- fold change (FC) [14]: -4.939
- fold change (FC) [15]: -7.7108
- fold change (FC) [16]: -5.1582
- fold change (FC) [17]: 9.0827
- fold change (FC) [18]: -5.8779
- fold change (FC) [19]: 8.9431
- fold change (FC) [20]: 3.1513
- fold change (FC) [21]: -6.2326
- fold change (FC) [23]: -2.8938
- fold change (FC) [24]: -4.3526
- fold change (FC) [26]: -4.806
- fold change (FC) [27]: -3.4447
- fold change (FC) [29]: -4.2116
- fold change (FC) [41]: -4.0052
- fold change (FC) [30]: -2.7247
- fold change (FC) [31]: -4.1285
- fold change (FC) [42]: 5.5464
- fold change (FC) [33]: -7.8184
- fold change (FC) [43]: -3.9071
- fold change (FC) [34]: 4.4344
- fold change (FC) [35]: 3.2561
- fold change (FC) [38]: -6.1896

SMILES: CCCCCCCCn1nnnc1-c1ccc(C(O)CC(N)(CO)CO)cc1.Cl (stereo unspecified)
- fold change (FC) [10]: -2.4869
- fold change (FC) [13]: -5.716
- fold change (FC) [44]: -2.5613
- fold change (FC) [25]: -5.2393
- fold change (FC) [41]: -4.5159
- fold change (FC) [32]: -3.7241
- fold change (FC) [43]: -4.4248
- fold change (FC) [37]: -4.8547
